Test results taken from paper PMC6450621, “Changes of drug pharmacokinetics mediated by downregulation of kidney organic cation transporters Mate1 and Oct2 in a rat model of hyperuricemia” (PLoS ONE, 2019).
Several values for one entry are separate records, joined by “and”; a condition that tells them apart may be missing. Equal values may be shown once.

What was measured:
[1] = Plasma concentration of oxonic acid and adenine in hyperuricemic rats; format: in vivo, rat; settings: hyperuricemic rats given oral oxonic acid […] and adenine 0.1 g/kg; detection limit 100 μM for oxonic acid
human MATE1 = molecular target: T1, human MATE1 (Homo sapiens, UniProt Q96FL8); assay: Uptake of [3H]MPP+ by MATE1-expressing HEK293 cells; format: cell-based; settings: for MATE1-mediated uptake of MPP+, % of Control: after subtraction of uptake by mock cells
T1 construct: expressed in transfected cells; host or cells: HEK293 (HEK293/hMATE1; gift from Dr. Inoue, Tokyo University of Pharmacy and Life Science)
T1 sequence (Q96FL8 1-570): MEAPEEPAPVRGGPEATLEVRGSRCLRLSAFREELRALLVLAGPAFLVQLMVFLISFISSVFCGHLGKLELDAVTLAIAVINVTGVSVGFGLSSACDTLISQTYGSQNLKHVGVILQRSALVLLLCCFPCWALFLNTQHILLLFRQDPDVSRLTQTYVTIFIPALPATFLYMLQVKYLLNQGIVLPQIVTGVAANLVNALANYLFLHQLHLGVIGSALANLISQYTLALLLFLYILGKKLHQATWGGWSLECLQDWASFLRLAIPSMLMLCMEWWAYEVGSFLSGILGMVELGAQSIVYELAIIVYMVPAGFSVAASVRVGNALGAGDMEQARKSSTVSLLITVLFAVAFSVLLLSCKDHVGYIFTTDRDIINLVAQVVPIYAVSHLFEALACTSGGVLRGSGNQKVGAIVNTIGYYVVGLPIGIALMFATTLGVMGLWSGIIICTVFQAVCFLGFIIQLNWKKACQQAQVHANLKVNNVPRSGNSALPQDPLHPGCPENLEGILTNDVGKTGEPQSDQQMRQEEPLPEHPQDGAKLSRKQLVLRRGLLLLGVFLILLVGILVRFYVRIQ
Method: HEK293 cells transfected with human MATE1 (HEK293/hMATE1) and vector alone (mock) were gifts from Dr. Inoue (Tokyo University of Pharmacy and Life Science). […] HEK293/mock and HEK293/hMATE1 cells were plated at a density of 3.0 × 10^5 cells/well on 24-well plates and cultured for two days before an uptake assay. […] Radioactivity was measured with a liquid scintillation counter (Hitachi Aloka Medical, Tokyo, Japan). Part of the lysate was used for the determination of total protein amount with Bio-Rad protein assay dye reagent. Uptake of MPP^+ was expressed as a cell-to-medium ratio (μL/mg protein) obtained by dividing the uptake amount by the concentration of substrate in the TM. Percentages of control were calculated as the ratio of MATE1-mediated uptake of MPP^+ that obtained after subtraction of the uptake of MPP^+ by mock cells in compound treated groups to that in control group.

[2] = Pharmacokinetic study after intravenous administration in control and hyperuricemic rats (plasma, urine, kidney); settings: for AUC0-4 / Kp, kidney / Kp at 4 h: creatinine; for Kp at 4 h / AUC(0-t) / concentration at 0.5 min / concentration at 30 min / concentration at 60 min: rat; for Kp at 4 h: kidney; for AUC(0-t) / concentration at 0.5 min / concentration at 30 min / concentration at 60 min: plasma; for concentration at 0.5 min / concentration at 30 min / concentration at 60 min: Plasma concentration;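 as to all read-outs here: Pentobarbital-anesthetized rats with cannulated bladder, jugular plasma, timed urine and saline kidney homogenate assayed by HPLC or LC-MS/MS, Kp as kidney over plasma level at 4 h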
Method: Rats were anesthetized with pentobarbital, and the bladder was cannulated with polyethylene tubing (inside diameter 0.5 mm, outside diameter 0.8 mm). […] Blood was drawn through the jugular vein, and plasma was obtained by centrifugation at 3,000 rpm for 10 min at 4°C. Urine was collected at the designated times. […] All samples were stored at -80°C until measurement.
If necessary, plasma and urine were diluted 10- to 100-fold and 10- to 10000-fold with saline, respectively, for high-performance liquid chromatography (HPLC) or liquid chromatography/tandem mass spectrometry (LC-MS/MS) measurement. […] Prepared samples were mixed for 1 min and centrifuged at 15,000 rpm for 5 min at 4°C. The resultant supernatant was used for LC-MS/MS analysis. The LC-MS/MS system consisted of a triple-quadrupole mass spectrometer (API 3200^TM, SCIEX, Foster City, CA) coupled with an ultrafast liquid chromatography system (LC-20AD, Shimadzu, Kyoto, Japan). […] For metformin, the mobile phase consisted of 0.1% formic acid and acetonitrile (30 : 70), and the flow rate was 0.4 mL/min.
The plasma concentration-time data were analyzed by non-compartmental analysis. The area under the plasma concentration-time curve (AUC0-4) was obtained by application of the trapezoidal rule from time 0 to 4 h. AUC from 0 to infinity (AUCinf) was estimated by extrapolation to infinity.

[3] = Inulin clearance in control and hyperuricemic rats; format: in vivo, rat; settings: Day 10, inulin 100 mg/kg iv
Method: Urine was collected at the designated times. […] All samples were stored at -80°C until measurement.
Inulin was measured by the anthrone method. After adding 500 mL concentrated sulfuric acid to 200 mL distilled water and cooling the solution to room temperature, 1.4 g anthrone (Sigma Aldrich) was added to it at 56°C to prepare the anthrone reagent. An aliquot of the reagent (400 μL) was added to 10 μL of plasma or urine suitably diluted with saline. The tube containing the sample was immersed in ice-cold water, shaken well and then allowed to react for 10 min at 56°C. The vial was immersed in ice-cold water to stop the reaction. The absorbance at 636 nm was measured with a spectrophotometer (UVmini1240, Shimadzu).

Mock cells = assay: Uptake of MPP+ by mock cells (background for MATE1-expressing cells); format: cell-based; settings: 100 µM; replicates and mean
Method: Dunnett's test was used for uptake study to compare the control group to groups treated with drugs.
Percentages of control were calculated as the ratio of MATE1-mediated uptake of MPP^+ that obtained after subtraction of the uptake of MPP^+ by mock cells in compound treated groups to that in control group.

[4] = control rats, individual rats and mean
[5] = hyperuricemic rats, individual rats and mean

Nc1ncnc2nc[nH]c12 [adenine]
Plasma concentration [1]: lower than 100 μM
MATE1-mediated uptake of MPP+, % of Control (human MATE1; Adenine 50 µM, replicates and mean): 68.3 % of Control and 107.0 % of Control
MATE1-mediated uptake of MPP+, % of Control (human MATE1; Adenine 500 µM, replicates and mean): 89.5 % of Control and 71.0 % of Control and 100.5 % of Control
MATE1-mediated uptake of MPP+, % of Control (human MATE1; Adenine 500 µM, replicates and mean, mean): 87.0 % of Control

O=c1[nH]c(=O)c2[nH]c(=O)[nH]c2[nH]1 [uric acid]
MATE1-mediated uptake of [3H]MPP+, percentage of control (human MATE1; 50 μM test compound, HEK293/hMATE1 minus mock, 0.25 nM [3H]MPP+, 0.5 min, 37°C): 102.0%
MATE1-mediated uptake of [3H]MPP+, percentage of control (human MATE1; 500 μM test compound, HEK293/hMATE1 minus mock, 0.25 nM [3H]MPP+, 0.5 min, 37°C): 100.7%
Inhibitory effect on MATE1-mediated MPP+ uptake (human MATE1; 50 and 500 μM of each): No inhibitory effects
MATE1-mediated uptake of MPP+, % of Control (human MATE1; Uric acid 50 µM, replicates and mean): 96.8 % of Control and 81.0 % of Control and 128.4 % of Control
MATE1-mediated uptake of MPP+, % of Control (human MATE1; Uric acid 50 µM, replicates and mean, mean): 102.0 % of Control
MATE1-mediated uptake of MPP+, % of Control (human MATE1; Uric acid 500 µM, replicates and mean): 87.8 % of Control and 117.9 % of Control and 96.4 % of Control
MATE1-mediated uptake of MPP+, % of Control (human MATE1; Uric acid 500 µM, replicates and mean, mean): 100.7 % of Control

CN1CC(=O)NC1=N [Creatinine, creatinine]
Plasma concentration ([2]; control rats, 0.5 min after iv metformin 30 mg/kg or cephalexin 10 mg/kg (creatinine endogenous), individual rat): 19.0 µM and 21.0 µM
Urinary excretion (cumulative) ([2]; control rats, 10 min, individual rats and mean): 0.04 mg and 0.06 mg and 0.09 mg and 0.07 mg
Urinary excretion (cumulative) ([2]; control rats, 20 min, individual rats and mean): 0.10 mg and 0.12 mg and 0.16 mg and 0.13 mg
Urinary excretion (cumulative) ([2]; control rats, 30 min, individual rats and mean): 0.13 mg and 0.19 mg and 0.22 mg and 0.18 mg
Plasma concentration ([2]; control rats, 30 min after iv metformin 30 mg/kg or cephalexin 10 mg/kg (creatinine endogenous), individual rat): 20.1 µM and 20.4 µM
Urinary excretion (cumulative) ([2]; control rats, 60 min, individual rats and mean): 0.18 mg and 0.30 mg and 0.32 mg and 0.27 mg
Plasma concentration ([2]; control rats, 60 min after iv metformin 30 mg/kg or cephalexin 10 mg/kg (creatinine endogenous), individual rat): 18.9 µM and 19.0 µM
Urinary excretion (cumulative) ([2]; control rats, 120 min, individual rats and mean): 0.46 mg and 0.61 mg and 0.52 mg and 0.53 mg
Urinary excretion (cumulative) ([2]; control rats, 240 min, individual rats and mean): 0.98 mg and 1.44 mg and 1.32 mg and 1.25 mg
AUC0-4 [2, 4]: 5400 µM·min and 5463 µM·min
Kp, kidney [2, 4]: 10.4 and 11.3
AUC0-4 [2, 5]: 10502 µM·min and 8634 µM·min
Kp, kidney [2, 5]: 11.7 and 17.3
Plasma concentration ([2]; hyperuricemic rats, 0.5 min after iv metformin 30 mg/kg or cephalexin 10 mg/kg (creatinine endogenous), individual rat): 36.4 µM and 30.6 µM
Urinary excretion (cumulative) ([2]; hyperuricemic rats, 10 min, individual rats and mean): 0.12 mg (3×) and 0.11 mg
Urinary excretion (cumulative) ([2]; hyperuricemic rats, 20 min, individual rats and mean): 0.19 mg (3×) and 0.20 mg
Urinary excretion (cumulative) ([2]; hyperuricemic rats, 30 min, individual rats and mean): 0.26 mg (2×) and 0.28 mg and 0.25 mg
Plasma concentration ([2]; hyperuricemic rats, 30 min after iv metformin 30 mg/kg or cephalexin 10 mg/kg (creatinine endogenous), individual rat): 34.4 µM and 30.6 µM
Urinary excretion (cumulative) ([2]; hyperuricemic rats, 60 min, individual rats and mean): 0.42 mg and 0.39 mg and 0.44 mg and 0.43 mg
Plasma concentration ([2]; hyperuricemic rats, 60 min after iv metformin 30 mg/kg or cephalexin 10 mg/kg (creatinine endogenous), individual rat): 34.5 µM and 36.2 µM
Urinary excretion (cumulative) ([2]; hyperuricemic rats, 120 min, individual rats and mean): 0.69 mg and 0.58 mg and 0.73 mg and 0.76 mg
Urinary excretion (cumulative) ([2]; hyperuricemic rats, 240 min, individual rats and mean): 1.22 mg and 0.95 mg and 1.24 mg and 1.48 mg
Kp at 4 h ([2]; intravenous, control rats, individual rats and mean): 8.8
Kp at 4 h ([2]; intravenous, hyperuricemic rats, individual rats and mean): 12
AUC(0-t) ([2]; intravenous, AUC0-4, creatinine, control rats, individual rats and mean): 87.6 µM·h
AUC(0-t) ([2]; intravenous, AUC0-4, creatinine, hyperuricemic rats, individual rats and mean): 171 µM·h
concentration at 0.5 min ([2]; intravenous, control rats, 0.5 min after iv metformin 30 mg/kg or cephalexin 10 mg/kg (creatinine endogenous), individual rat): 17.7 µM
concentration at 0.5 min ([2]; intravenous, control rats, 0.5 min after iv metformin 30 mg/kg or cephalexin 10 mg/kg (creatinine endogenous), mean n=3): 19.2 µM
concentration at 30 min ([2]; intravenous, control rats, 30 min after iv metformin 30 mg/kg or cephalexin 10 mg/kg (creatinine endogenous), individual rat): 19.5 µM
concentration at 30 min ([2]; intravenous, control rats, 30 min after iv metformin 30 mg/kg or cephalexin 10 mg/kg (creatinine endogenous), mean n=3): 20 µM
concentration at 60 min ([2]; intravenous, control rats, 60 min after iv metformin 30 mg/kg or cephalexin 10 mg/kg (creatinine endogenous), individual rat): 22.9 µM
concentration at 60 min ([2]; intravenous, control rats, 60 min after iv metformin 30 mg/kg or cephalexin 10 mg/kg (creatinine endogenous), mean n=3): 20.3 µM
concentration at 0.5 min ([2]; intravenous, hyperuricemic rats, 0.5 min after iv metformin 30 mg/kg or cephalexin 10 mg/kg (creatinine endogenous), individual rat): 24.6 µM
concentration at 0.5 min ([2]; intravenous, hyperuricemic rats, 0.5 min after iv metformin 30 mg/kg or cephalexin 10 mg/kg (creatinine endogenous), mean n=3): 30.5 µM
concentration at 30 min ([2]; intravenous, hyperuricemic rats, 30 min after iv metformin 30 mg/kg or cephalexin 10 mg/kg (creatinine endogenous), individual rat): 25.9 µM
concentration at 30 min ([2]; intravenous, hyperuricemic rats, 30 min after iv metformin 30 mg/kg or cephalexin 10 mg/kg (creatinine endogenous), mean n=3): 30.3 µM
concentration at 60 min ([2]; intravenous, hyperuricemic rats, 60 min after iv metformin 30 mg/kg or cephalexin 10 mg/kg (creatinine endogenous), individual rat): 26.5 µM
concentration at 60 min ([2]; intravenous, hyperuricemic rats, 60 min after iv metformin 30 mg/kg or cephalexin 10 mg/kg (creatinine endogenous), mean n=3): 32.4 µM
AUC(0-t) ([2]; iv, AUC0-4, control rats, iv metformin 30 mg/kg or cephalexin 10 mg/kg, creatinine endogenous, mean n=3): 89.5 µM·h
AUC(0-t) ([2]; iv, AUC0-4, hyperuricemic rats, iv metformin 30 mg/kg or cephalexin 10 mg/kg, creatinine endogenous, mean n=3): 163 µM·h

inulin
Inulin Clearance ([3]; control rats, individual rat): 5.90 mL/min/kg and 7.51 mL/min/kg and 6.75 mL/min/kg
Inulin Clearance ([3]; control rats, mean): 6.72 mL/min/kg
Inulin Clearance ([3]; hyperuricemic rats, individual rat): 7.92 mL/min/kg and 4.99 mL/min/kg and 6.15 mL/min/kg and 4.14 mL/min/kg and 3.58 mL/min/kg
Inulin Clearance ([3]; hyperuricemic rats, mean): 5.36 mL/min/kg

CN/C(=N/CCSCc1nc[nH]c1C)NC#N [cimetidine]
C/M ratio of MPP+ uptake, Mock cells (Mock cells): 9.40 µL/mg protein and 10.25 µL/mg protein and 9.69 µL/mg protein
MATE1-mediated uptake of MPP+, % of Control (human MATE1; 100 µM, replicates and mean, 100 µM): 5.0 % of Control and 14.6 % of Control
C/M ratio of MPP+ uptake, MATE1-expressing cells (human MATE1; 100 µM, replicates and mean): 36.0 µL/mg protein and 18.8 µL/mg protein
MATE1-mediated uptake of [3H]MPP+, percentage of control (human MATE1; positive control Mate1 inhibitor, concentration not given, HEK293/hMATE1): 8.2%
